The values that follow come from article PMC4108065, “Inflammation and pancreatic cancer: molecular and functional interactions between S100A8, S100A9, NT-S100A8 and TGFβ1” (Cell Communication and Signaling : CCS, 2014).

Type in all cases: cell-based, human
In one assay the test system is BxPC3. Put plainly: XTT cell viability assay, BxPC3. The conditions noted are these: 48 hours, TGFβ1 0.02 ng/ml, NT-S100A8 50 nM, S100A8 10 nM, S100A9 10 nM, alone or combined, at least three independent experiments in quadruplicate. The method, then:
BxPC3, Capan1, MiaPaCa2, Panc1 and BxPC3-SMAD4+ cells were seeded (2000 cells per well) in 96-well cell culture plates and cultured in complete media for 24 hours. Media were then replaced with fresh cell culture media in absence (control) or in presence of TGFβ1 (0.02 ng/ml) and NT-S100A8 (50 nM), alone or combined or in absence (control) or in presence of TGFβ1 (0.02 ng/ml), S100A8 (10 nM) and S100A9 (10 nM) alone or combined. Cell growth was assessed after 48 hours using the XTT cell viability test (Roche, Milano, Italy). At least three independent experiements, each made in quadruplicate, were run. The results were expressed as percentage with respect to the median Abs450nm of control cells run in the same experimental set.
For orientation: Tetrazolium dyes change colour on reduction, which living cells bring about.

Assay [1] deals with IκBα phosphorylation at Ser32. Put plainly: NF-κB signaling, western blot of IκBα phosphorylation in PDAC cell lines. The conditions noted are these: BxPC3, Capan1, MiaPaCa2, Panc1, 10 min, 10 nM S100A8, S100A9, S100A8/A9, 50 nM NT-S100A8, 0.02 ng/ml TGFβ1. As for the experimental part:
(§1) Five million cells were seeded in Petri dishes (ø 10 cm) and cultured for 24 hours in their respective complete media prior to starting the experiments. Cells remained non-stimulated (negative control) or were stimulated with 50 mU insulin (positive control) (Insuman Rapid, Sanofi-Aventis, Deutschland, GmbH) for 10 min; in parallel, experimental cells were stimulated with 50 nM NT-S100A8, 0,02 ng/ml TGFβ1 (ProSpec-Tany TechnoGene), 10 nM S100A8 and 10 nM S100A9 alone or combined for 10 min. Following stimulations, Petri dishes were immediately transferred into an ice bath, and the cells were washed twice with cold PBS, re-suspended in 100 μl of cold lysis buffer [20 mM Tris–HCl, pH 7.5, 150 mM NaCl, 1 mM EDTA, 1% Triton-X 100, 50 mM NaF, 10 mM Na4P2O7,1 mM Na3VO4, and 10% protease inhibitor cocktail (Sigma Aldrich SRL, Milano, Italy)]. Lysates were centrifuged for 10 min at 14,000 rpm at 4°C and, in the supernatants, total proteins were measured using the Bio-Rad protein assay (Bio-Rad Laboratories, Milano, Italy). Each experiment was performed at least in triplicate.
(§2) For each sample, 40 μg proteins were electrophoresed through 4–12% NuPAGE®NovexBis-Tris SDS–PAGE Gel or 3-8% NuPAGE®NovexTris-Acetate SDS–PAGE Gel (Invitrogen S.R.L., Life Technologies, Monza, Italy) and electrophoretically transferred to Nitrocellulose Membrane (iBlot® Transfer Stack, Invitrogen S.R.L.) by means of the iBlotTMDry Blotting System (Invitrogen S.R.L.). Following incubation for 1 hour in a blocking buffer [5% low fat powder milk re-suspended in PBS-T (PBS with 0.1% Tween-20)], membranes were incubated overnight at 4°C with the primary antibodies [antiphospho IkB-α (Ser^32) (Santa Cruz Biotechnology, Inc., Santa Cruz, CA, USA); anti-phospho-Akt (Ser^473), anti-phospho-Akt (Thr^308), anti-Akt and anti-phospho-S6 Ribosomal Protein (Ser^235/236), anti-cleaved Caspase-3, anti-phospho-Stat3 Tyr^705, anti-β-actin, anti-phospho mTOR (Ser^2448, Ser^2481) (Cell Signaling Technology, Danvers, MA, USA); anti-RAGE (R&D Systems, Minneapolis, MN, USA) ] diluted 1:5000 (β-actin), 1:2000 (mTOR, cleaved Caspase-3, Stat3) or 1:3000 (all the others) in the blocking buffer. The blots, washed three times in PBS-T for 15 min, were incubated with […] anti-rabbit (Cell Signaling Technology) or anti-goat (Sigma Aldrich) secondary antibodies and then washed three times in PBS-T for 15 min and developed with the ECL Advance Western Blot Detection Kit (GE Healthcare Technologies, Milan, Italy).

Assay [2] concerns Akt phosphorylation sites Thr308 and Ser473. The assay is described as follows: Akt signaling, western blot in PDAC cell lines. The conditions noted are these: BxPC3, Capan1, MiaPaCa2, Panc1, 10 min; for Akt Ser473 phosphorylation: 10 nM S100A8, S100A9, S100A8/A9, 50 nM NT-S100A8; for Akt Thr308 phosphorylation: 10 nM S100A8, S100A9, S100A8/A9, 50 nM NT-S100A8, 0.02 ng/ml TGFβ1. The method, then: as §1, §2
For orientation: A western blot detects proteins with antibodies after separation by electrophoresis.

The test system of assay [3] is mTOR Ser2481, Ser2448 and S6 Ribosomal Protein phosphorylation. The assay is described as follows: mTOR signaling, western blot in PDAC cell lines. The conditions noted are these: BxPC3, Capan1, MiaPaCa2, Panc1, 10 min, 10 nM S100A8, S100A9, S100A8/A9, 50 nM NT-S100A8, 0.02 ng/ml TGFβ1. As for the experimental part:
as §1, §2

Another assay relates to BxPC3 N-Cadherin. Put plainly: N-cadherin immunocytochemistry, BxPC3. The conditions noted are these: vs untreated cells. The method, then:
In order to investigate immunocytochemical reactions, control and stimulated cells were formalin-fixed and paraffin embedded before obtaining […] sections from each cell block. All immunocytochemical staining was performed automatically (Bondt—maX, Menarini, Florence, Italy) with primary antibodies: E-cadherin (DakoCytomation, Glostrup, Denmark) (1:200), N-cadherin (DakoCytomation) (1:100), Twist1 (Novocastra, Newcastle-upon-Tyne, UK)(1:600). Sections were then lightly counterstained with hematoxylin. E-cadherin and N-cadherin immunoreactions were defined as immunoreactions detectable in the membrane while Twist was defined as a positive nuclear staining. At least three independent sets of experiments were performed in each experimental condition.

A further assay has as its system BxPC3-SMAD4+. The assay is described as follows: XTT cell viability assay, BxPC3-SMAD4+. The conditions noted are these: BxPC3-SMAD4+ vs BxPC3, XTT, 48 hours; TGFβ1 0.02 ng/ml, NT-S100A8 50 nM. The method, then: Supplementary file 1478-811X-12-20-S7.tiff: Additional file 7: Figure S6 XTT cell viability assay results. BxPC3 (empty columns) and BxPC3-SMAD4+ (filled columns) were seeded in a 96 well culture plate (2000 cells/well) and cultured for 48 hours, A: in absence (control) or in presence of TGFβ1 (0.02 ng/ml) and NT-S100A8 (50 nM), alone or combined; B: in absence (control) or in presence of TGFβ1 (0.02 ng/ml) and S100A8 (10 nM) and S100A9 (10 nM), alone or combined. In each experimental set, the median value of Abs450nm of untreated cells was calculated and used as reference. All the other values were expressed as percentage to the reference. Columns and bars show mean and standard errors, respectivelty. Student’s t test: * = p<0.05. Click here for file
BxPC3, Capan1, MiaPaCa2, Panc1 and BxPC3-SMAD4+ cells were seeded (2000 cells per well) in 96-well cell culture plates and cultured in complete media for 24 hours. […] Cell growth was assessed after 48 hours using the XTT cell viability test (Roche, Milano, Italy). […] The results were expressed as percentage with respect to the median Abs450nm of control cells run in the same experimental set.

In the case of “S100A8: inflammatory calcium binding protein S100A8 (ProSpec-Tany TechnoGene)”, in the assay on BxPC3, the “BxPC3 % to Control Mean±SEM” value is recorded as 111.45±5.92 % to Control. In assay [1], the “IκBα phosphorylation (Ser32)” value is “reduced IκBα phosphorylation in Capan1, MiaPaCa2 and Panc1, not in BxPC3”. Moreover, in assay [2], the “Akt Ser473 phosphorylation” value was “reduced Akt Ser^473 phosphorylation in Capan1, MiaPaCa2 and Panc1 cells”; the “Akt Thr308 phosphorylation” value was “induced in BxPC3, and reduced in the other cell lines”. Also, in assay [3], the “mTOR Ser2448 phosphorylation” value is “induced mTOR Ser^2448 phosphorylation in all cell lines”; the “mTOR Ser2481 phosphorylation” value was “Ser^2481 in BxPC3 and Capan1”. Besides, the N-Cadherin membranous immunostaining result in the assay on BxPC3 N-Cadherin is listed as “less marked than in control cells”.
On to “TGFβ1: transforming growth factor beta 1 (ProSpec-Tany TechnoGene)”, for which the “BxPC3 % to Control Mean±SEM” value in the assay with BxPC3 is listed as 96.85 ± 5.02 % to Control. For the same substance, the “cell proliferation response associated with Smad4 expression” value with BxPC3-SMAD4+ is “positive cell proliferation response”. For the same substance, the “IκBα phosphorylation (Ser32)” value in assay [1] is listed as “no significant effects”. In assay [2], the “Akt Thr308 phosphorylation” value is on record as “inhibited Akt Thr^308, but not Akt Ser^473 phosphorylation in Smad4 expressing cells”. In addition, in assay [3], the “mTOR Ser2448 phosphorylation” value is “inducing Ser^2481 and Ser^2448 phosphorylation in all cell lines”; the “mTOR Ser2481 phosphorylation” value is “inducing Ser^2481 and Ser^2448 phosphorylation in all cell lines”. For the same substance, the N-Cadherin membranous immunostaining result with BxPC3 N-Cadherin is “less marked than in control cells”.
Take “S100A9: inflammatory calcium binding protein S100A9, S100A8 binding partner”: the “BxPC3 % to Control Mean±SEM” value in the assay with BxPC3 is 103.53± 5.18 % to Control. Moreover, the “IκBα phosphorylation (Ser32)” value in assay [1] was “reduced IκBα phosphorylation in Capan1, MiaPaCa2 and Panc1, not in BxPC3”. In assay [2], the “Akt Ser473 phosphorylation” value was “reduced Akt Ser^473 phosphorylation in Capan1, MiaPaCa2 and Panc1 cells”; the “Akt Thr308 phosphorylation” value was “induced in BxPC3, and reduced in the other cell lines”. In addition, in assay [3], the “mTOR Ser2448 phosphorylation” value is on record as “induced mTOR Ser^2448 phosphorylation in all cell lines”; the “mTOR Ser2481 phosphorylation” value is “Ser^2481 in BxPC3 and Capan1”. Moreover, the N-Cadherin membranous immunostaining result in the assay with BxPC3 N-Cadherin is listed as “less marked than in control cells”.
In the case of “NT-S100A8: 14 N-terminal aminoacid peptide of S100A8, isolated from PDAC tissues (MLTELEKALNSIID; UniProt P05109 1-14, looked up, fragment)”, the “cell proliferation response associated with Smad4 expression” value in the assay with BxPC3-SMAD4+ was “positive cell proliferation response”. Besides, the “IκBα phosphorylation (Ser32)” value in assay [1] was “reduced IκBα phosphorylation in Capan1, MiaPaCa2 and Panc1, not in BxPC3”. In assay [2], the “Akt Ser473 phosphorylation” value is given as “augmented in the same cell lines”; the “Akt Thr308 phosphorylation” value is “reduced in Capan1 and MiaPaCa2”. In addition, in assay [3], the “mTOR Ser2448 phosphorylation” value is “inducing Ser^2481 and Ser^2448 phosphorylation in all cell lines”; the “mTOR Ser2481 phosphorylation” value is “inducing Ser^2481 and Ser^2448 phosphorylation in all cell lines”. For the same substance, the N-Cadherin membranous immunostaining result in the assay on BxPC3 N-Cadherin is reported as “less marked than in control cells”.
